The values that follow come from patent publication US5166155A, “Quinoxaline-2,3-dione compounds and their preparation and use” (Novo Nordisk A/S, priority 1990, dated 1992).

The subject of assay [1] is NMDA receptor. To be noted: cited from earlier work.
For assay [2], the system named is NMDA receptor/ionophor complex, allosteric modulatory (glycine) site. The conditions noted are these: literature; cited from earlier work.
For assay [3], the target named is T1, glycine site of the NMDA receptor complex (Rattus norvegicus, UniProt P35439).
T1 construct: thawed rat cerebral cortical membrane homogenate; from tissue; host or cells: rat cerebral cortex, membrane homogenate
As to the kind of experiment: [3H]-glycine binding (Test 1). The conditions noted are these: [3H]-glycine 10 nM, rat cerebral cortical membrane, 0° C., 10 min, pH 7.1. The procedure:
The glycine site binding activity of these compounds of the present invention can be illustrated by determining their capability for displacing radioactively labelled glycine from the glycine site.
The displacement activity of the compounds may be shown by determining the IC50 value which represents the concentration (μM) which causes a displacement of 50% of the specific binding of [^3 H]-glycine.
1 ml of thawed rat cerebral cortical membrane homogenate in HEPES-Tris (5 mM) and MgCl2 (1 mM) pH 7.1 were incubated at 0° C. for 10 min. with 25 μl [^3 H]-glycine (10 nM final concentration) and the test compound and buffer. Non-specific binding was determined by incubating with D-serine (1 mM final concentration). The binding reaction was terminated by centrifugation at 15,000×g at 4° C. followed by washing of the pellet with three times 3 ml of ice-cold buffer. Bound radioactivity was measured by scintillation counting. IC50 was determined by Hill analysis of at least four concentrations of test compound.

For assay [4], the system named is NMDA stimulated [3H]-GABA release. Put plainly: Inhibition of NMDA stimulated [3H]-GABA release from cultured mouse cerebral cortex interneurons (Test 3). The assay is classed as cell-based. The conditions noted are these: 3 μg/ml NMDA, 37° C. The procedure: The NMDA antagonistic properties of the compounds is illustrated by determining their capability to antagonize NMDA stimulated [^3 H]-GABA release from cultured mouse cortex neurons. The NMDA antagonistic activity of the compounds may be shown by determining the IC50 value, which represents the concentration (μM) which inhibits 50% of NMDA induced [^3 H]-GABA release.
Release experiments are performed using the model described by Drejer et al. (Life Sci. 38, 2077 (1986)). To cerebral cortex interneurons cultured in petri dishes (30 mm) are added 100 μg/ml 3-vinyl-GABA one hour before the experiment in order to inhibit degradation of GABA in the neurons. 30 min. before the experiment 5 μCi [^3 H]-GABA is added to each culture and after this preloading period the cells are washed twice with HEPES buffered saline (HBS) containing 10 mM HEPES, 135 mM NaCl, 5 mM KCl, 0.6 mM MgSO4, 1.0 mM CaCl2 and 6 mM D-glucose; pH 7 and placed in a superfusion system. This system consists of a peristaltic pump continuously delivering thermostated 37° C. superfusion medium from a reservoir to the top of a slightly tilted petri dish. The cell monolayer at the bottom of the dish is covered with a piece of nylon mesh to facilitate dispersion of medium over the cell layer. The medium is continuously collected from the lower part of the dish and delivered to a fraction collector. Initially, the cells are superfused with HBS for 15 min. (flow rate 2 ml/min.). Then cells are stimulated for 30 sec. every 4 min. by changing the superfusion medium from HBS to a corresponding medium containing NMDA and antagonist according to the following scheme:
Stimulation no. 1:3 μg/ml NMDA
Stimulation no. 2:3 μg/ml NMDA+0.3 μg/ml antagonist
Stimulation no. 3:3 μg/ml NMDA+3.0 μg/ml antagonist
The release of [^3 H]-GABA in the presence of NMDA is corrected for the mean basal release before and after stimulation. The stimulated release in the presence of antagonist is expressed relative to the stimulated release by NMDA alone and the IC50 value is calculated.

Assay [5] addresses T2, NMDA receptor glycine site (glycine enhanced [3H]-MK-801 binding) (Rattus norvegicus, UniProt P35439).
T2 construct: thawed and extensively washed rat cerebral membrane homogenate; from tissue; host or cells: rat cerebrum, extensively washed membrane homogenate
As to the kind of experiment: Antagonism of glycine enhanced [3H]-MK-801 binding (Test 2). To be noted: Schild analysis; [3H]-MK-801 1 nM, glutamate 300 nM, rat cerebral membrane, 23° C., 60 min, pH 7.40. The procedure: The glycine antagonism is measured by determining the Ki value which represents the dissociation constant (μM) of the receptor-antagonist complex.
1 ml of thawed and extensively washed rat cerebral membrane homogenate in HEPES-NaOH (20 mM) pH 7.40 were incubated at 23° C. for 60 min. with 25 μl [^3 H]-MK-801 (1 nM final concentration), 25 μl glutamate (300 nM final concentration), test compound in concentrations corresponding to 0, 0.5, 2 and 5 times the IC50 value from the [^3 H]-glycine binding assay (test 1) for each concentration of glycine (10; 100; 1,000; 10,000 and 100,000 nM final concentration). The binding reaction was terminated by adding 5 ml of ice-cold buffer followed by rapid filtration through Whatman GF/C glass fiber filters and 5 ml wash with ice-cold buffer. Bound radioactivity was measured by scintillation counting. Ki values were determined by Schild analysis of the data using
log(dosis ration-1)=log[Inhibitor]-log(Ki).

By IC50 is commonly meant the point on the concentration scale where inhibition reaches its midpoint. Broadly, the Ki is a measure of affinity in units of concentration, obtained from inhibition or displacement.

Regarding `O=C1C[C@@H]2OCC=C3CN4CC[C@]56c7ccccc7N1[C@H]5[C@H]2[C@H]3C[C@H]46` [strychnine], the “sensitivity of the glycine response to strychnine” value in assay [1] (cultured neurons, literature) is recorded as “insensitive”. Regarding `N[C@@H]1CONC1=O` [D-cycloserine], the “agonist/antagonist activity at the glycine site” value (“agonist/antagonist activity” below) in assay [2] is listed as “partial agonists”.

For the compound `CCCCC(C(=O)O)n1c(=O)c(=O)[nH]c2ccccc21` (centres unmarked) [Example 8, 1-((1-Carboxy)pentyl)-quinoxaline-2,3(1H,4H)-dione], the IC50 in assay [3] turned out to be 2.2 µM; in assay [4] it was 1.88 µM. Besides, the Ki in assay [5] was 0.77 µM. For `O=C(O)Cn1c(=O)c(=O)[nH]c2cc(Br)c(Br)cc21` [Example 12, 1-Carboxymethyl-6,7-dibromoquinoxaline-2,3(1H,4H)-dione] the same measures were 0.849 µM, 0.127 µM and 0.39 µM. As to `N#Cc1cc2[nH]c(=O)c(=O)[nH]c2cc1[N+](=O)[O-]` [CNQX, 6-cyano-7-nitroquinoxaline-2,3-dione], the “agonist/antagonist activity” value in assay [2] was “weak antagonists”. Take `O=C(O)Cn1c(=O)c(=O)[nH]c2cc(F)c(F)cc21` [Example 4, 1-Carboxymethyl-6,7-difluoroquinoxaline-2,3(1H,4H)-dione]: the IC50 was 0.5 µM in assay [3] and 0.328 µM in assay [4]. Also, in assay [5], the Ki amounted to 0.118 µM. Turning to `COc1ccc2c(c1)n(O)c(=O)c(=O)n2CC(=O)O` [Example 13, 1-Carboxymethyl-4-hydroxy-6-methoxyquinoxalin-2,3(1H,4H)-dione], the values for the IC50 in assay [3] and in assay [4] were 8 µM and above 3.75 µM, respectively. `CCCCCC(C(=O)O)n1c(=O)c(=O)[nH]c2cc(Br)ccc21` (centres unmarked) [Example 15, 1-((1-Carboxy)hexyl)-6-bromoquinoxaline-2,3(1H, 4H)-dione]: the IC50 turned out to be 0.587 µM in assay [3] and 2.64 µM in assay [4]. Further, the Ki in assay [5] came out at 0.049 µM. With `CC(C(=O)O)n1c(=O)c(=O)[nH]c2ccccc21` (centres unmarked) [Example 11, 1-((1-Carboxy)ethyl)quinoxaline-2,3(1H,4H)-dione], the IC50 in assay [3] stood at 3 µM. For the same compound, the Ki in assay [5] stood at 0.9 µM. Turning to `O=C(O)Cn1c(=O)c(=O)[nH]c2cc(Cl)c(Cl)cc21` [Example 1, 1-Carboxymethyl-6,7-dichloroquinoxaline-2,3(1H,4H)-dione], the IC50 in assay [3] came out at 0.35 µM; in assay [4], 0.163 µM. The Ki in assay [5] came to 0.162 µM. For `Cc1cc2[nH]c(=O)c(=O)n(CC(=O)O)c2cc1C` [Example 5, 1-Carboxymethyl-6,7-dimethylquinoxaline-2,3(1H,4H)-dione], the IC50 in assay [3] came out at 0.554 µM; in assay [4], 0.509 µM. For the same compound, the Ki in assay [5] came out at 0.212 µM.

Turning to `C[C@@H](N)C(=O)O` [D-alanine], the “agonist/antagonist activity” value in assay [2] is on record as “strong agonist activity”. As for `O=C(O)Cn1c(=O)c(=O)[nH]c2cc(Cl)ccc21` [Example 6, 1-Carboxymethyl-6-chloroquinoxaline-2,3(1H,4H)-dione], the IC50 in assay [3] worked out at 0.52 µM; in assay [4] it was 0.394 µM. In addition, the Ki in assay [5] came to 3.4 µM.

On to `O=C(O)c1cc(O)c2ccc(Cl)cc2n1` [7-chlorokynurenate], for which the “agonist/antagonist activity” value in assay [2] is “quite strong, but non-selective antagonists of glycine at the glycine site”. Turning to `N[C@H](CO)C(=O)O` [D-serine], in assay [2], the “agonist/antagonist activity” value was “strong agonist activity”.

`CCCC(C(=O)O)n1c(=O)c(=O)[nH]c2ccccc21` (centres unmarked) [Example 9, 1-((1-Carboxy)butyl)quinoxaline-2,3(1H,4H)-dione]: the IC50 was determined as 5 µM in assay [3] and 2.86 µM in assay [4]. For the same compound, in assay [5], the Ki stood at 1.9 µM. In the same order, the values of `O=C(O)Cn1c(=O)c(=O)[nH]c2cc(Br)ccc21` [Example 3, 6-Bromo-1-carboxymethylquinoxaline-2,3(1H,4H)-dione] are 0.544 µM, 0.505 µM and 0.127 µM. `CCCCC(C(=O)O)n1c(=O)c(=O)[nH]c2cc(Cl)c(Cl)cc21` (centres unmarked) [Example 16, 1-((1-carboxy)pentyl)-6,7-dichloroquinoxaline-2,3(1H,4H)-dione]: the IC50 in assay [3] is 0.409 µM. In addition, the Ki in assay [5] amounted to 0.1 µM. As to `O=C(O)Cn1c(=O)c(=O)[nH]c2ccc([N+](=O)[O-])cc21` [Example 19, 1-Carboxymethyl-7-nitroquinoxaline-2,3(1H,4H)-dione], the IC50 in assay [3] worked out at 7 µM. `O=C(O)Cn1c(=O)c(=O)[nH]c2cc(Cl)cc(Cl)c21` [Example 22, 1-Carboxymethyl-6,8-dichloroquinoxaline-2,3(1H, 4H)-dione] returned an IC50 in assay [3] of 0.852 µM. Against the preceding compound, the IC50 is about 8.2-fold lower.

`NCC(=O)O` [glycine]: the “effect on NMDA receptor agonist induced responses” value in assay [1] is recorded as “increase NMDA receptor agonist induced responses”. For the same compound, the “glycine site binding affinity” value in assay [2] is recorded as “high affinity binding”. For the compound `NC1CCN(O)C1=O` (centres unmarked) [HA-966, 3-amino-1-hydroxy-2-pyrrolidone], the “agonist/antagonist activity” value in assay [2] is “weak antagonists”. In assay [3], `O=C(O)Cn1c(=O)c(=O)[nH]c2cc([N+](=O)[O-])ccc21` [Example 7, 1-Carboxymethyl-6-nitroquinoxaline-2,3(1H,4H)-dione] returned an IC50 of 2 µM.

For the compound `O=C(O)C(c1ccccc1)n1c(=O)c(=O)[nH]c2ccccc21` (centres unmarked) [Example 10, 1-(1-Carboxy-1-phenylmethyl)quinoxaline-2,3(1H,4H)-dione], the results for the IC50 in assay [3] and in assay [4] were 8 µM and 2.62 µM, respectively.
